Data reported in ChEMBL document CHEMBL1201862, “PubChem BioAssay data set” (2004).
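In this assay, cells in 96-well plates receive the compound at five concentrations for 48 hours. Endpoints are linearly interpolated between the surrounding concentrations. At the GI50, growth is halved.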 Active and inactive are the calls of the source. Cut-off read from the data, not from the text of the source: active = GI50 up to about 1.1 µM and inactive = higher.

Columns and labels:
Assay in all cases: NCI anticancer screen, dose series, 48 h
[1] = test system: EKVX
[2] = test system: RXF 393
[3] = test system: HT-29
[4] = test system: SK-MEL-5
[5] = test system: NCI-H522
[6] = test system: UACC-257
[7] = test system: IGROV-1
[8] = test system: SNB-19
[9] = test system: SR
[10] = test system: OVCAR-8
[11] = test system: SK-MEL-2
[12] = test system: SF-539
[13] = test system: 786-0
[14] = test system: TK-10
[15] = test system: BT-549
[16] = test system: M14
[17] = test system: OVCAR-4
[18] = test system: MOLT-4
[19] = test system: SF-295
[20] = test system: MCF7

SMILES | GI50 [1] | GI50 [2] | GI50 [3] | GI50 [4] | GI50 [5] | GI50 [6] | GI50 [7] | GI50 [8] | GI50 [9] | GI50 [10] | GI50 [11] | GI50 [12] | GI50 [13] | GI50 [14] | GI50 [15] | GI50 [16] | GI50 [17] | GI50 [18] | GI50 [19] | GI50 [20]
CO[C@H]1[C@@H](O)[C@@H](C)O[C@@H](O[C@H]2CC[C@@]3(C)[C@H](CC[C@@H]4[C@@H]3CC[C@]3(C)[C@@H](C5=CC(=O)OC5)CC[C@]43O)C2)[C@@H]1O [ODOROSIDE H] | 0.00474 µM (active) | 0.00394 µM (active) | 0.00573 µM (active) | 0.00509 µM (active) | < 0.0025 µM (active) | 0.0109 µM (active) | 0.00498 µM (active) | 0.0215 µM (active) | 0.00304 µM (active) | 0.00661 µM (active) | 0.0169 µM (active) | 0.00468 µM (active) | 0.00453 µM (active) | 0.00336 µM (active) | 0.00514 µM (active) | 0.0137 µM (active) | 0.00583 µM (active) | < 0.0025 µM (active) | 0.00516 µM (active) | 0.00773 µM (active)
O=C1C2CCCCC2C(=O)N1n1c(Cc2ccc(Cl)cc2)n[nH]c1=O (stereo not given) | > 100 µM (inactive) | > 100 µM (inactive) | > 100 µM (inactive) | > 100 µM (inactive) | > 100 µM (inactive) | > 100 µM (inactive) | > 100 µM (inactive) | > 100 µM (inactive) | > 100 µM (inactive) | > 100 µM (inactive) | > 100 µM (inactive) | > 100 µM (inactive) | > 100 µM (inactive) | > 100 µM (inactive) | > 100 µM (inactive) | > 100 µM (inactive) | > 100 µM (inactive) | > 100 µM (inactive) | > 100 µM (inactive) | > 100 µM (inactive)
CC(=O)NCCC1CN(C(=O)/C=C/I)c2ccccc21 (stereo not given) | 15.4 µM (inactive) | 5.21 µM (inactive) | 5.51 µM (inactive) | 7.57 µM (inactive) | 1.39 µM (inactive) | 7.48 µM (inactive) | 6.55 µM (inactive) | 14.8 µM (inactive) | 2.9 µM (inactive) | 9.79 µM (inactive) | 3.29 µM (inactive) | 8 µM (inactive) | 1.32 µM (inactive) | 1.42 µM (inactive) | 5.42 µM (inactive) | 3.37 µM (inactive) | 1.96 µM (inactive) | 3.79 µM (inactive) | 15.5 µM (inactive) | 0.308 µM (active)
Cn1c(=O)nc2n(CCO)ccnc-2c1=O | > 100 µM (inactive) | > 100 µM (inactive) | > 100 µM (inactive) | > 100 µM (inactive) | > 100 µM (inactive) | > 100 µM (inactive) | > 100 µM (inactive) | > 100 µM (inactive) | > 100 µM (inactive) | > 100 µM (inactive) | > 100 µM (inactive) | > 100 µM (inactive) | > 100 µM (inactive) | > 100 µM (inactive) | > 100 µM (inactive) | > 100 µM (inactive) | > 100 µM (inactive) | > 100 µM (inactive) | > 100 µM (inactive) | > 100 µM (inactive)
O=C1NC(=S)NC(=O)C1=Cc1cccc2cc3ccccc3cc12 | 2.91 µM (inactive) | 1.66 µM (inactive) | 2.13 µM (inactive) | 2.07 µM (inactive) | 1.91 µM (inactive) | 1.78 µM (inactive) | 1.67 µM (inactive) | 2.28 µM (inactive) | 1.44 µM (inactive) | 1.86 µM (inactive) | 1.92 µM (inactive) | 1.58 µM (inactive) | 1.61 µM (inactive) | 1.89 µM (inactive) | 1.71 µM (inactive) | 2.24 µM (inactive) | 2.28 µM (inactive) | 2.12 µM (inactive) | 2.46 µM (inactive) | 1.8 µM (inactive)
CC1=Nc2ccccc2/C1=C\c1c(C)[nH]c2ccccc12 | 12.2 µM (inactive) | 10.6 µM (inactive) | 12.8 µM (inactive) | 14.1 µM (inactive) | 10 µM (inactive) | 13.2 µM (inactive) | 12.5 µM (inactive) | 16.6 µM (inactive) | 5.9 µM (inactive) | 12.4 µM (inactive) | 17.8 µM (inactive) | 24.5 µM (inactive) | 12 µM (inactive) | 16.3 µM (inactive) | 3.55 µM (inactive) | 23.2 µM (inactive) | 12.4 µM (inactive) | 3.4 µM (inactive) | 18.6 µM (inactive) | 4.49 µM (inactive)
O/N=C(/CC(O)(C(F)(F)F)C(F)(F)F)c1ccccc1 | > 10 µM (inactive) | > 10 µM (inactive) | > 10 µM (inactive) | 2.1 µM (inactive) | > 10 µM (inactive) | > 10 µM (inactive) | > 10 µM (inactive) | > 10 µM (inactive) | > 10 µM (inactive) | > 10 µM (inactive) | > 10 µM (inactive) | > 10 µM (inactive) | > 10 µM (inactive) | > 10 µM (inactive) | > 10 µM (inactive) | > 10 µM (inactive) | > 10 µM (inactive) | > 10 µM (inactive) | > 10 µM (inactive) | > 10 µM (inactive)
